pEC50: −log10 of the molar value. Where two headings read alike, the source gives them in different places.
Columns and labels:
Assay type in all cases: cell-based
[1] = system: HIV-1 clinical isolated, characterised by mutations in the RT gene inducing geno-phenotypic resistance to d4T; assay: p24 production susceptibility test (ACTG protocol), Table 4; conditions: for pEC50: Human immunodeficiency virus 1, PBMC, read-out: E.C.50 HCQ; for S.I. HCQ / Fen. HCQ (fold): PBMC; for S.I. HCQ: I.C.50/E.C.50; for Fen. HCQ (fold): ratio to HIV-IIIB
From the text: (§1) For the phenotype of the nucleosidic, non-nucleosidic and proteases inhibitors was utilised a method which consider the use of human PBMC and the protocol standardised by the AIDS Clinical Trials Group, after verifying the genotype by sequence analysis.
(§2) In order to assay in vitro the susceptibility to chloroquine and hydroxychloroquine of the viral strains, it was used the protocol of the ACTG which is characterised by the measure, of the production of antigen p24 in strongly infected cells.
(§3) The susceptibility of the viral strains to chemotherapics was determined in cell cultures, prepared in 96 wells microplates, using, for the infection, 0.1 MOI.
(§4) The supernatant of the infected cultures (either in absence or in presence of different concentrations of chemotherapic) were tested for the production of p24 after 7 days, using an ELISA test which is commercially available.
(§5) The concentrations of chloroquine and hydroxychloroquine tested ranged from 0.5 to 15 uM. At the same time non-infected cells were incubated with concentrations of chloroquine and hydroxychloroquine ranging from 0 to 50 uM to evaluate the toxicity of the compound.
(§6) After 4 day from the infection, half the cellular medium was replaced with a medium containing the corresponding dilution of chloroquine and hydroxychloroquine. The percentage of inhibition of the HIV replication, induced by chloroquine and hydroxychloroquine, was determined, after 7 day from the infection, comparing the levels of p24 of this cultures and that of the control, infected and not treated with chloroquine and hydroxychloroquine.
(§7) Therefore, the E.C.50 of chloroquine and hydroxychloroquine expresses the concentration of chemotherapic that inhibits the 50% of production of p24 and the values were calculated using linear and non linear regression analysis (the significativity for the non linear regression was R^2>0.95).
(§8) In the same experimental conditions and in the same day, but with similar concentrations of chloroquine and hydroxychloroquine, it was evaluated the vitality of the infect cell cultures, and this was expressed as I.C.50.
(§9) I.C.50 (Inhibitory Concentration) indicates the concentration of the chemotherapic agent inhibiting the vitality of the cell cultures at a rate of 50%, when there is not infection.

[2] = system: HIV-1 clinical isolated, characterised by mutations on the protease gene inducing geno-phenotypic resistance to NFV; assay: p24 production susceptibility test (ACTG protocol), Table 10, PBMC; conditions: for S.I. HCQ: I.C.50/E.C.50; for Fen. HCQ (fold): ratio to HIV-IIIB; for pEC50: Human immunodeficiency virus 1, PBMC, read-out: E.C.50 HCQ
From the text: as §1, §2, §3, §4, §5, §6, §7, §8, §9

[3] = system: HIV-1 clinical isolated, characterised by mutations in the protease gene inducing geno-phenotypic resistance to SQV; assay: p24 production susceptibility test (ACTG protocol), Table 8; conditions: for pEC50: Human immunodeficiency virus 1, PBMC, read-out: E.C.50 HCQ; for S.I. HCQ / Fen. HCQ (fold): PBMC; for S.I. HCQ: I.C.50/E.C.50; for Fen. HCQ (fold): ratio to HIV-IIIB
From the text: as §1, §2, §3, §4, §5, §6, §7, §8, §9

[4] = system: HIV-1 clinical isolated, characterised by mutations in the RT gene inducing geno-phenotypic resistance to 3TC; assay: p24 production susceptibility test (ACTG protocol), Table 3; conditions: for pEC50: Human immunodeficiency virus 1, PBMC, read-out: E.C.50 HCQ; for S.I. HCQ / Fen. HCQ (fold): PBMC; for S.I. HCQ: I.C.50/E.C.50; for Fen. HCQ (fold): ratio to HIV-IIIB
From the text: as §1, §2, §3, §4
At the same time non-infected cells were incubated with concentrations of chloroquine and hydroxychloroquine ranging from 0 to 50 uM to evaluate the toxicity of the compound.
as §6, §7, §8, §9

[5] = system: HIV-1 strains cultivated in PBMC and isolated from patient naive to the treatment; assay: p24 production susceptibility test (ACTG protocol), Table 11; conditions: for pEC50: Human immunodeficiency virus 1, PBMC; for S.I. HCQ: I.C.50/E.C.50
Method: as §2, §3, §4, §5, §6, §7, §8, §9

[6] = system: HIV-1 clinical isolated, characterised by mutations in the RT gene inducing geno-phenotypic resistance to ABC; assay: p24 production susceptibility test (ACTG protocol), Table 5; conditions: for pEC50: Human immunodeficiency virus 1, PBMC, read-out: E.C.50 HCQ; for S.I. HCQ / Fen. HCQ (fold): PBMC; for S.I. HCQ: I.C.50/E.C.50; for Fen. HCQ (fold): ratio to HIV-IIIB
From the text: as §1, §2, §3, §4, §5, §6, §7, §8, §9

[7] = Gen. K65R F77L Y115F Q151M M184V
[8] = Gen. M4IL E44D D67N M184V R211K T215Y
[9] = Gen. M41L D67N V118I M184V T215Y
[10] = Gen. K65R S68G F77L Y115F Q151M M184V
[11] = Gen. M41L D67N M184V L210W T215Y

CCN(CCO)CCCC(C)Nc1ccnc2cc(Cl)ccc12 (centres unmarked) [HCQ, hydroxychloroquine]
pEC50 [1, 7]: 5.46
pEC50 ([1]; Gen. K65R F116Y Q151M): 5.52
pEC50 ([1]; Gen. M41I T69SSS T215Y): 5.60
pEC50 ([1]; Gen. T69SSS T215Y): 5.52
pEC50 ([1]; Gen. V75I F77L F116Y Q151M): 5.52
S.I. HCQ [1, 7]: 3.3
Fen. HCQ (fold) [1, 7]: 2.3X fold
S.I. HCQ ([1]; Gen. K65R F116Y Q151M): 3.3
Fen. HCQ (fold) ([1]; Gen. K65R F116Y Q151M): 2.2X fold
S.I. HCQ ([1]; Gen. M41I T69SSS T215Y): 3.6
Fen. HCQ (fold) ([1]; Gen. M41I T69SSS T215Y): 1.6X fold
S.I. HCQ ([1]; Gen. T69SSS T215Y): 3.3
Fen. HCQ (fold) ([1]; Gen. T69SSS T215Y): 2X fold
S.I. HCQ ([1]; Gen. V75I F77L F116Y Q151M): 4
Fen. HCQ (fold) ([1]; Gen. V75I F77L F116Y Q151M): 2X fold
S.I. HCQ ([2]; Gen. D30N A71V): 4
Fen. HCQ (fold) ([2]; Gen. D30N A71V): 1.2X fold
S.I. HCQ ([2]; Gen. D30N M46V A71V): 5.5
Fen. HCQ (fold) ([2]; Gen. D30N M46V A71V): 1X fold
S.I. HCQ ([2]; Gen. G48V V92A): 3.3
Fen. HCQ (fold) ([2]; Gen. G48V V92A): 1.6X fold
S.I. HCQ ([2]; Gen. V82F L90M): 3.6
Fen. HCQ (fold) ([2]; Gen. V82F L90M): 1.3X fold
pEC50 ([2]; Gen. D30N A71V): 5.66
pEC50 ([2]; Gen. D30N M46V A71V): 5.74
pEC50 ([2]; Gen. G48V V92A): 5.52
pEC50 ([2]; Gen. V82F L90M): 5.60
pEC50 ([3]; Gen. G48V I84V A74V L90M): 5.82
pEC50 ([3]; Gen. G48V V82A): 5.52
pEC50 ([3]; Gen. I84V L90M): 5.55
pEC50 ([3]; Gen. M46I G48V L63P L90M): 5.74
pEC50 ([3]; Gen. V82A L90M): 5.74
S.I. HCQ ([3]; Gen. G48V I84V A74V L90M): 4
Fen. HCQ (fold) ([3]; Gen. G48V I84V A74V L90M): 0.8X fold
S.I. HCQ ([3]; Gen. G48V V82A): 3
Fen. HCQ (fold) ([3]; Gen. G48V V82A): 1.6X fold
S.I. HCQ ([3]; Gen. I84V L90M): 3
Fen. HCQ (fold) ([3]; Gen. I84V L90M): 1.5X fold
S.I. HCQ ([3]; Gen. M46I G48V L63P L90M): 6
Fen. HCQ (fold) ([3]; Gen. M46I G48V L63P L90M): 1X fold
S.I. HCQ ([3]; Gen. V82A L90M): 5.5
Fen. HCQ (fold) ([3]; Gen. V82A L90M): 1X fold
pEC50 [4, 8]: 5.60
pEC50 [4, 9]: 5.49
pEC50 ([4]; Gen. M184I): 5.55
pEC50 ([4]; Gen. M184V): 5.52
S.I. HCQ [4, 8]: 3.5
Fen. HCQ (fold) [4, 8]: 1.5X fold
S.I. HCQ [4, 9]: 3.3
Fen. HCQ (fold) [4, 9]: 1.7X fold
S.I. HCQ ([4]; Gen. M184I): 3.4
Fen. HCQ (fold) ([4]; Gen. M184I): 1.2X fold
S.I. HCQ ([4]; Gen. M184V): 3.2
Fen. HCQ (fold) ([4]; Gen. M184V): 1.3X fold
pEC50 ([5]; HIV-1 virus sensitive to the anti-retroviral treatment, range over each experiment, read-out: E.C.50): 5.46 to 5.82
pEC50 ([5]; PBMC, Virus N°1, read-out: E.C.50 HCQ): 5.66
pEC50 ([5]; PBMC, Virus N°2, read-out: E.C.50 HCQ): 5.74
pEC50 ([5]; PBMC, Virus N°3, read-out: E.C.50 HCQ): 5.82
pEC50 ([5]; PBMC, Virus N°4, read-out: E.C.50 HCQ): 5.66
pEC50 ([5]; PBMC, Virus N°5, read-out: E.C.50 HCQ): 5.74
S.I. HCQ ([5]; PBMC, Virus N°1): 4.5
S.I. HCQ ([5]; PBMC, Virus N°2): 5
S.I. HCQ ([5]; PBMC, Virus N°3): 6
S.I. HCQ ([5]; PBMC, Virus N°4): 4
S.I. HCQ ([5]; PBMC, Virus N°5): 4.5
pEC50 ([6]; Gen. K65R L74V M184V): 5.82
pEC50 [6, 10]: 5.66
pEC50 ([6]; Gen. L74V M184F): 5.66
pEC50 ([6]; Gen. L74V Y115F M184V): 5.60
pEC50 [6, 11]: 5.74
S.I. HCQ ([6]; Gen. K65R L74V M184V): 6
Fen. HCQ (fold) ([6]; Gen. K65R L74V M184V): 1X fold
S.I. HCQ [6, 10]: 4
Fen. HCQ (fold) [6, 10]: 1.4X fold
S.I. HCQ ([6]; Gen. L74V M184F): 4
Fen. HCQ (fold) ([6]; Gen. L74V M184F): 1.4X fold
S.I. HCQ ([6]; Gen. L74V Y115F M184V): 3.6
Fen. HCQ (fold) ([6]; Gen. L74V Y115F M184V): 1.3X fold
S.I. HCQ [6, 11]: 5.5
Fen. HCQ (fold) [6, 11]: 1.2X fold
